Source: patent US20250360179A1, “PEPTIDE-IONIC LIQUID CONJUGATE FOR THE PREVENTION AND/OR TREATMENT OF SKIN DISORDERS” (UNIVERSIDADE DO PORTO, priority 2022, published 2025)
Several values for one entry are separate records, joined by “and”; a condition that tells them apart may be missing. Identical values can stand only once. Like-named read-outs stand apart in the source and are kept apart here. Marks after values point to notes of the source that are not given here. Residues, ends and D or L forms follow the SMILES beside them. *: point of attachment. X1 = CCCCCCCCCCCCCCCCn1cc[n+](Cc2cn(CC(=O)*)nn2)c1; X2 = Cn1cc[n+](Cc2cn(CC(=O)*)nn2)c1

Legend:
Type in all cases: cell-based
[1] = system: Candida albicans (ATCC 90028); test: Antifungal MIC (EUCAST) against C. albicans; conditions: C. albicans ATCC 90028, n = 2
[2] = system: Candida glabrata (ATCC 90030); test: Antifungal MIC (EUCAST) against C. glabrata; conditions: C. glabrata ATCC 90030, n = 2
[3] = system: Candida parapsilosis (ATCC 22019); test: Antifungal MIC (EUCAST) against C. parapsilosis; conditions: C. parapsilosis ATCC 22019, n = 2
E. coli ATCC 25922 = test: MIC (CLSI) against E. coli ATCC 25922; conditions: E. coli ATCC 25922, n = 3
P. aeruginosa ATCC 27853 = test: MIC (CLSI) against P. aeruginosa ATCC 27853; conditions: P. aeruginosa ATCC 27853, n = 3
S. aureus ATCC 29213 = test: MIC (CLSI) against S. aureus ATCC 29213; conditions: S. aureus ATCC 29213, n = 3
E. faecalis ATCC 29212 = test: MIC (CLSI) against E. faecalis ATCC 29212; conditions: E. faecalis ATCC 29212, n = 3
K. pneumonia ATCC 138830 = test: MIC (CLSI) against K. pneumoniae ATCC reference strain; conditions: K. pneumonia ATCC 138830, n = 3
[4] = system: S. epidermidis ATCC 14990; test: MIC (CLSI) against S. epidermidis ATCC 14990; conditions: S. epidermidis ATCC 14990, n = 3
S. pyogenes ATCC 19615 = test: MIC (CLSI) against S. pyogenes ATCC 19615; conditions: S. pyogenes ATCC 19615, n = 3
[5] = system: K. pneumoniae (KP010) MDR clinical isolate; conditions: MDR isolate KP010, n = 3
[6] = system: P. aeruginosa (PA004) MDR clinical isolate; conditions: MDR isolate PA004, n = 3
[7] = system: S. aureus (SA007) MDR clinical isolate; conditions: for MIC: MDR isolate SA007, n = 3
S. aureus (ATCC 29213) = test: MIC and MBC in MHB and simulated wound fluid (SWF); conditions: for MBC: S. aureus ATCC 29213 in MHB, n = 3; for antibacterial activity in simulated wound fluid (SWF): S. aureus, SWF compared with MHB
Description: The antibacterial activity of C16Im-KTTKS and KTTK(C16Im)S was also assessed in SWF (50) against S. aureus (ATCC 29213), to check if it was preserved in this medium.

[8] = system: human dermal fibroblasts (HDF); test: Collagen production in vitro (Sircol kit); conditions: 5 μM, versus negative control
Description: FIG. 3—Collagen synthesis by Human Dermal Fibroblasts (HDF), in presence of C16-KTTKS-OH (Matrixyl®), KTTK (C16Im)S and C16Im-KTTKS at 5 μM, using the Sircol™ Kit. Data are presented as mean±SEM (3 independent experiments in triplicates) expressed in collagen amount (% of control); *p<0.05, **p<0.01.
The point of conjugating antimicrobial ILs to a collagenesis-inducing peptide was to afford a simple construct able to exert a dual antimicrobial and skin rebuilding action. Therefore, the two best IL-KTTKS conjugates were further tested for their ability to promote collagen production by human dermal fibroblasts (HDF) in vitro. This was assessed using the Sircol® kit assay, whereby the amount of newly formed collagen in the ECM that is deposited in the microwell-plated cell cultures is solubilized in an acidic medium and next quantified through a collagen standard curve according to the Sircol® kit assay procedure (55). Assays were conducted in different conditions for comparison, namely, in the presence of the reference cosmeceutical Matrixyl® (positive control—C16-KTTKS-OH), of the test conjugates KTTK(C16Im)S and C16Im-KTTKS, and in the absence of any peptide (negative control).

[9] = system: Gram-negative and Gram-positive bacteria (ATCC reference strains); test: Antibacterial activity against ATCC reference strains, statements across species; conditions: Gram-positive species at MIC values
Description: The antimicrobial activity of the IL-KTTKS conjugates was assessed in vitro against reference bacterial strains (American Type Culture Collection, ATCC). The minimal inhibitory concentration (MIC) was determined according to the Clinical and Laboratory Standards Institute (CLSI) guidelines (43) against Gram-positive (S. aureus, E. faecalis) and Gram-negative (E. coli, P. aeruginosa) bacteria. […] IL are in agreement with those previously reported (44).

Structure (SMILES) | MIC (E. coli ATCC 25922) | MIC (P. aeruginosa ATCC 27853) | MIC (S. aureus ATCC 29213) | MIC (E. faecalis ATCC 29212) | MIC (K. pneumonia ATCC 138830) | MIC [1] | MIC [2] | MIC [3] | other results
OC(Cn1cncn1)(Cn1cncn1)c1ccc(F)cc1F [Fluconazole, reference compound] | – | – | – | – | – | – | – | – | MIC ([1]; Candida albicans, ATCC90028, read-out: MIC): 0.5 µg/mL; MIC ([2]; Nakaseomyces glabratus, ATCC90030, read-out: MIC): 8 µg/mL; MIC ([3]; ATCC22019, read-out: MIC): 2 µg/mL
C[C@@H](O)[C@H](NC(=O)[C@@H](NC(=O)[C@@H](N)CCCCn1cc(C[n+]2ccn(C)c2)nn1)[C@@H](C)O)C(=O)N[C@@H](CCCCn1cc(C[n+]2ccn(C)c2)nn1)C(=O)N[C@@H](CO)C(N)=O [K(MeIm)TTK(MeIm)S] | > 1067.4 µg/mL | > 1245.5 μM and > 1067.4 μg/mL | > 1245.5 μM and > 1067.4 μg/mL | > 1245.5 μM and > 1067.4 μg/mL | – | – | – | – | –
C[C@@H](O)[C@H](NC(=O)[C@@H](NC(=O)[C@@H](N)CCCCn1cc(C[n+]2ccn(C)c2)nn1)[C@@H](C)O)C(=O)N[C@@H](CCCCN)C(=O)N[C@@H](CO)C(N)=O [K(MeIm)TTKS] | > 731.2 µg/mL | > 1030.1 μM and > 731.2 μg/mL | > 1030.1 μM and > 731.2 μg/mL | > 1030.1 μM and > 731.2 μg/mL | – | – | – | – | –
CCCCCCCCCCCCCCn1cc[n+](Cc2cn(CCCC[C@H](NC(=O)[C@@H](NC(=O)[C@@H](NC(=O)[C@@H](N)CCCCN)[C@@H](C)O)[C@@H](C)O)C(=O)N[C@@H](CO)C(N)=O)nn2)c1 [KTTK(C14Im)S] | (26.3) μg/mL | (52.6)^b μg/mL | (26.3) μg/mL | (52.6)^b μg/mL | – | – | – | – | –
CCCCCCCCCCCCCCCCn1cc[n+](Cc2cn(CCCC[C@H](NC(=O)[C@@H](NC(=O)[C@@H](NC(=O)[C@@H](N)CCCCN)[C@@H](C)O)[C@@H](C)O)C(=O)N[C@@H](CO)C(N)=O)nn2)c1 [KTTK(C16Im)S] | (6.45) μg/mL | (29.9) μg/mL | (12.9) μg/mL | (29.9) μg/mL | (49.5) μg/mL | 5.0 µg/mL | (5.0) μg/mL | (2.5) μg/mL | MIC [4]: (5.0) μg/mL; MIC (S. pyogenes ATCC 19615): (10.0) μg/mL; MIC [5]: 20.0 µg/mL; MIC [6]: 21.7 μM and 20.0 μg/mL; MIC [7]: 21.7 μM and 20.0 μg/mL; MBC (S. aureus (ATCC 29213)): [64-128] μg/mL; antibacterial activity in simulated wound fluid (SWF) (S. aureus (ATCC 29213)): slightly decrease; collagen production (collagen amount, % of control) [8]: produce more collagen; bacteriostatic or bactericidal action [9]: bactericidal
C[C@@H](O)[C@H](NC(=O)[C@@H](NC(=O)[C@@H](N)CCCCN)[C@@H](C)O)C(=O)N[C@@H](CCCCn1cc(C[n+]2ccn(C)c2)nn1)C(=O)N[C@@H](CO)C(N)=O [KTTK(MeIm)S] | > 677.3 µg/mL | > 954.2 μM and > 677.3 μg/mL | > 954.2 μM and > 677.3 μg/mL | > 954.2 μM and > 677.3 μg/mL | – | – | – | – | –
C[C@@H](O)[C@H](NC(=O)[C@H](CCCCN)NC(=O)Cn1cc(C[n+]2ccn(C)c2)nn1)C(=O)N[C@H](C(=O)N[C@@H](CCCCN)C(=O)N[C@@H](CO)C(N)=O)[C@@H](C)O [MeIm-KTTKS] (X2-KTTKS-NH2; N-terminus and C-terminus assumed) | > 633.4 µg/mL | > 825.9 μM and > 633.4 μg/mL | > 825.9 μM and > 633.4 μg/mL | > 825.9 μM and > 633.4 μg/mL | – | – | – | – | –
CCCCCCCCCCCCCCCCn1cc[n+](Cc2cn(CC(=O)N[C@@H](CCCCN)C(=O)N[C@H](C(=O)N[C@H](C(=O)N[C@@H](CCCCN)C(=O)N[C@@H](CO)C(N)=O)[C@@H](C)O)[C@@H](C)O)nn2)c1 [Peptide C16Im-KTTKS] (X1-KTTKS-NH2; N-terminus and C-terminus assumed) | (14.0) μg/mL | (28.0) μg/mL | (14.0) μg/mL | (28.0) μg/mL | (26.8) μg/mL | 4.6 µg/mL | (4.6) μg/mL | (2.3) μg/mL | MIC [4]: (9.3) μg/mL; MIC (S. pyogenes ATCC 19615): (18.5) μg/mL; MIC [5]: (37.0) μg/mL; MIC [6]: (18.5) μg/mL; MIC relative to that of ciprofloxacin ([7]; MDR isolate SA007): ~10 fold; MIC [7]: (18.5)^a μg/mL; MBC (S. aureus (ATCC 29213)): [32-64] μg/mL; antibacterial activity in simulated wound fluid (SWF) (S. aureus (ATCC 29213)): retain; collagen production (collagen amount, % of control) [8]: produce more collagen; bacteriostatic or bactericidal action [9]: bactericidal
CCCCCCCCCCCCCCCCn1cc[n+](C)c1.[Br-] [[C16M1Im][Br], reference compound] | 60 µM | >240 µM | 0.94^d μM | 0.94^c μM | 60 µM | 0.93 µM | 0.93 µM | 0.93 µM | –
